Measurements taken from patent publication US9163256B2, “Mutant receptors and their use in a nuclear receptor-based inducible gene expression system” (priority 2004, dated 2015).

Tests used:
Assay in all cases: GAL4-driven luciferase reporter assay in NIH3T3 cells
Format in all cases: cell-based
CfEcR-DEF mutant F48K = CfEcR-DEF mutant F48K (Choristoneura fumiferana, UniProt O77255, F331K)
Summary of the method: (§1)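 Mouse NIH3T3 cells were treated with ligand in DMSO, then transfected with GAL4 luciferase reporter (0.16 μg/well) plus mutant CfEcR-DEF receptor constructs (0.04 μg each/well). Cells were kept at 37° C in 5% FBS and lysed 40 hours after ligand addition for dual-luciferase measurement. Fold induction = ligand RLU ÷ DMSO RLU.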

CfEcR-DEF mutant I51M = CfEcR-DEF mutant I51M (Choristoneura fumiferana, UniProt O77255, I334M)
Summary of the method: as §1

CfEcR-DEF mutant L132E = CfEcR-DEF mutant L132E (Choristoneura fumiferana, UniProt O77255, L415E)
Summary of the method: as §1

CfEcR-DEF mutant L223K = CfEcR-DEF mutant L223K (Choristoneura fumiferana, UniProt O77255, L506K)
Summary of the method: as §1

CfEcR-DEF mutant L223R = CfEcR-DEF mutant L223R (Choristoneura fumiferana, UniProt O77255, L506R)
Summary of the method: as §1

CfEcR-DEF mutant L223Y = CfEcR-DEF mutant L223Y (Choristoneura fumiferana, UniProt O77255, L506Y)
Summary of the method: as §1

CfEcR-DEF mutant L234R = CfEcR-DEF mutant L234R (Choristoneura fumiferana, UniProt O77255, L517R)
Summary of the method: as §1

CfEcR-DEF mutant M125G = CfEcR-DEF mutant M125G (Choristoneura fumiferana, UniProt O77255, M408G)
Summary of the method: as §1

CfEcR-DEF mutant M125N = CfEcR-DEF mutant M125N (Choristoneura fumiferana, UniProt O77255, M408N)
Summary of the method: as §1

CfEcR-DEF mutant M125S = CfEcR-DEF mutant M125S (Choristoneura fumiferana, UniProt O77255, M408S)
Summary of the method: as §1

CfEcR-DEF mutant M125V = CfEcR-DEF mutant M125V (Choristoneura fumiferana, UniProt O77255, M408V)
Summary of the method: as §1

CfEcR-DEF mutant M219A = CfEcR-DEF mutant M219A (Choristoneura fumiferana, UniProt O77255, M502A)
Summary of the method: as §1

CfEcR-DEF mutant M219K = CfEcR-DEF mutant M219K (Choristoneura fumiferana, UniProt O77255, M502K)
Summary of the method: as §1

CfEcR-DEF mutant M219W = CfEcR-DEF mutant M219W (Choristoneura fumiferana, UniProt O77255, M502W)
Summary of the method: as §1

CfEcR-DEF mutant M219Y = CfEcR-DEF mutant M219Y (Choristoneura fumiferana, UniProt O77255, M502Y)
Summary of the method: as §1

CfEcR-DEF mutant T52G = CfEcR-DEF mutant T52G (Choristoneura fumiferana, UniProt O77255, T335G)
Summary of the method: as §1

CfEcR-DEF mutant T52M = CfEcR-DEF mutant T52M (Choristoneura fumiferana, UniProt O77255, T335M)
Summary of the method: as §1

CfEcR-DEF mutant T52R = CfEcR-DEF mutant T52R (Choristoneura fumiferana, UniProt O77255, T335R)
Summary of the method: as §1

CfEcR-DEF mutant T52W = CfEcR-DEF mutant T52W (Choristoneura fumiferana, UniProt O77255, T335W)
Summary of the method: as §1

CfEcR-DEF mutant W238L = CfEcR-DEF mutant W238L (Choristoneura fumiferana, UniProt O77255, W521L)
Summary of the method: as §1

[1] = NIH3T3, 40 h, read-out: Rel Max FI

Sequence of CfEcR-DEF mutant T52R (O77255 entry or part of it T335R): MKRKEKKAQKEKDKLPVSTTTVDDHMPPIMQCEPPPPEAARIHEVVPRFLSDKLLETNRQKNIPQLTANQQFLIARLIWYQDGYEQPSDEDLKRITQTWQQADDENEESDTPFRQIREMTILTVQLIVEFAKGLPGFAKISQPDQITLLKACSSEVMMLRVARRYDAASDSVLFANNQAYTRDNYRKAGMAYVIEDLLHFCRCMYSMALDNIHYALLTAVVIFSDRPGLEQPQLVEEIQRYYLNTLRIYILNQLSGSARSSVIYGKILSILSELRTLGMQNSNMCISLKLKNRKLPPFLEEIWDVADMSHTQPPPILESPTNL
Sequence of CfEcR-DEF mutant T52R (P28702 299-449, further chain): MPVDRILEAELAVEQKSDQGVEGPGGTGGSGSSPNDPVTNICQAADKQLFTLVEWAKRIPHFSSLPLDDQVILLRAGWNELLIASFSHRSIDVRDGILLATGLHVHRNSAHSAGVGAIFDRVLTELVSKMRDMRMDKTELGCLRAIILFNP
Sequence of CfEcR-DEF mutant M219A (O77255 entry or part of it M502A): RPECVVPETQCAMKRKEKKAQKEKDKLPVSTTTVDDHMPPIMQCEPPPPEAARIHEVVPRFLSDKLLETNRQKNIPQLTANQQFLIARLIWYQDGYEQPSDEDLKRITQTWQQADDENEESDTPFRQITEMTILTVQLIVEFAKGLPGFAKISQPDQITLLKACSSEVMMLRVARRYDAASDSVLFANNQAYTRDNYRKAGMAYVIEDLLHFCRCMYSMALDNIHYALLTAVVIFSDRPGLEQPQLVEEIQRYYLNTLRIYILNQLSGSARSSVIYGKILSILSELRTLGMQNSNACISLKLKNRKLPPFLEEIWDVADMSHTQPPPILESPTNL
Sequence of CfEcR-DEF mutant M219A (P28702 299-449, further chain): as the sequence (P28702 299-449, further chain) above
Sequence of CfEcR-DEF mutant M125S (P28702 299-449): as the sequence (P28702 299-449, further chain) above
Sequence of CfEcR-DEF mutant M125S (O77255 entry or part of it M408S): as the sequence (O77255 entry or part of it T335R) above, with R117T, M190S counted along it
Sequence of CfEcR-DEF mutant M219K (P28702 299-449): as the sequence (P28702 299-449, further chain) above
Sequence of CfEcR-DEF mutant M219K (O77255 entry or part of it M502K): as the sequence (O77255 entry or part of it M502A) above, with A296K counted along it
Sequence of CfEcR-DEF mutant L223Y (P28702 299-449): as the sequence (P28702 299-449, further chain) above
Sequence of CfEcR-DEF mutant L223Y (O77255 entry or part of it L506Y): as the sequence (O77255 entry or part of it T335R) above, with R117T, L288Y counted along it
Sequence of CfEcR-DEF mutant M219W (P28702 299-449): as the sequence (P28702 299-449, further chain) above
Sequence of CfEcR-DEF mutant M219W (O77255 entry or part of it M502W): as the sequence (O77255 entry or part of it M502A) above, with A296W counted along it
Sequence of CfEcR-DEF mutant M219Y (P28702 299-449): as the sequence (P28702 299-449, further chain) above
Sequence of CfEcR-DEF mutant M219Y (O77255 entry or part of it M502Y): as the sequence (O77255 entry or part of it M502A) above, with A296Y counted along it
Sequence of CfEcR-DEF mutant W238L (P28702 299-449): as the sequence (P28702 299-449, further chain) above
Sequence of CfEcR-DEF mutant W238L (O77255 entry or part of it W521L): as the sequence (O77255 entry or part of it M502A) above, with A296M, W315L counted along it
Sequence of CfEcR-DEF mutant I51M (P28702 299-449): as the sequence (P28702 299-449, further chain) above
Sequence of CfEcR-DEF mutant I51M (O77255 entry or part of it I334M): as the sequence (O77255 entry or part of it M502A) above, with I128M, A296M counted along it

Q: How did the EC50 (CfEcR-DEF mutant F48K) turn out when `CCc1c(OC)cccc1C(=O)NN(C(=O)c1cc(C)cc(C)c1)C(C)(C)C` [RG-102240, N-(2-ethyl-3-methoxybenzoyl)-N′-(3,5-dimethylbenzoyl)-N′-tert-butylhydrazine] was run?
A: 11.1 µM

Q: And the Emax (CfEcR-DEF mutant F48K; [1])?
A: 100%

Q: And the EC50 (CfEcR-DEF mutant I51M)?
A: 3.94 µM

Q: And the Emax (CfEcR-DEF mutant I51M; [1])?
A: 100%

Q: What about the EC50 (CfEcR-DEF mutant L132E) of the same compound?
A: 0.41 µM

Q: And the Emax (CfEcR-DEF mutant L132E; [1])?
A: 100%

Q: What about the EC50 (CfEcR-DEF mutant L223K) of the same compound?
A: 3.93 µM

Q: And the Emax (CfEcR-DEF mutant L223K; [1])?
A: 100%

Q: What about the EC50 (CfEcR-DEF mutant L223R) of the same compound?
A: 8.69 µM

Q: And the Emax (CfEcR-DEF mutant L223R; [1])?
A: 100%

Q: What about the EC50 (CfEcR-DEF mutant L223Y) of the same compound?
A: 3.15 µM

Q: And the Emax (CfEcR-DEF mutant L223Y; [1])?
A: 100%

Q: And the EC50 (CfEcR-DEF mutant L234R)?
A: 17.1 µM

Q: What about the Emax (CfEcR-DEF mutant L234R; [1]) of the same compound?
A: 100%

Q: What about the EC50 (CfEcR-DEF mutant M125G) of the same compound?
A: 14.2 µM

Q: And the Emax (CfEcR-DEF mutant M125G; [1])?
A: 100%

Q: What about the EC50 (CfEcR-DEF mutant M125N) of the same compound?
A: 9.88 µM

Q: And the Emax (CfEcR-DEF mutant M125N; [1])?
A: 100%

Q: And the EC50 (CfEcR-DEF mutant M125S)?
A: 12.3 µM

Q: What about the Emax (CfEcR-DEF mutant M125S; [1]) of the same compound?
A: 100%

Q: And the EC50 (CfEcR-DEF mutant M125V)?
A: 1.64 µM

Q: What about the Emax (CfEcR-DEF mutant M125V; [1]) of the same compound?
A: 100%

Q: And the EC50 (CfEcR-DEF mutant M219A)?
A: 2.9 µM

Q: And the Emax (CfEcR-DEF mutant M219A; [1])?
A: 100%

Q: And the EC50 (CfEcR-DEF mutant M219K)?
A: 2.9 µM

Q: And the Emax (CfEcR-DEF mutant M219K; [1])?
A: 100%

Q: And the EC50 (CfEcR-DEF mutant M219W)?
A: 3.35 µM

Q: What about the Emax (CfEcR-DEF mutant M219W; [1]) of the same compound?
A: 100%

Q: What about the EC50 (CfEcR-DEF mutant M219Y) of the same compound?
A: 0.82 µM

Q: And the Emax (CfEcR-DEF mutant M219Y; [1])?
A: 100%

Q: And the EC50 (CfEcR-DEF mutant T52G)?
A: 3.52 µM

Q: What about the Emax (CfEcR-DEF mutant T52G; [1]) of the same compound?
A: 100%

Q: And the EC50 (CfEcR-DEF mutant T52M)?
A: 6.74 µM

Q: What about the Emax (CfEcR-DEF mutant T52M; NIH3T3, 40 h, read-out: Rel MaxFI) of the same compound?
A: 100%

Q: And the EC50 (CfEcR-DEF mutant T52R)?
A: 6.69 µM

Q: What about the Emax (CfEcR-DEF mutant T52R; [1]) of the same compound?
A: 100%

Q: And the EC50 (CfEcR-DEF mutant T52W)?
A: 18.3 µM

Q: What about the Emax (CfEcR-DEF mutant T52W; [1]) of the same compound?
A: 100%

Q: What about the EC50 (CfEcR-DEF mutant W238L) of the same compound?
A: 11.1 µM

Q: What about the Emax (CfEcR-DEF mutant W238L; [1]) of the same compound?
A: 100%
